Assays:
human A2A AR = human A2A AR (Homo sapiens, UniProt P29274); assay: cAMP functional assay in CHO-K1/ADORA2A/Gα15 cells (NECA-stimulated, HTRF); format: cell-based; details: for inhibition at 0.01 µM / inhibition at 0.1 µM / inhibition at 1 µM: CHO-K1; for inhibition at 0.01 µM: read-out: hA2A AR (%) inhibition of cAMP, 10 nM; for inhibition at 0.1 µM: read-out: hA2A AR (%) inhibition of cAMP, 100 nM; for inhibition at 1 µM: read-out: hA2A AR (%) inhibition of cAMP, 1000 nM;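 for all read-outs here: inhibition of NECA-driven intracellular cAMP build-up in the A2A-expressing cells, quantified with cAMP-d2 plus Eu3+-labelled anti-cAMP detection reagent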
Chain of human A2A AR (P29274 whole entry): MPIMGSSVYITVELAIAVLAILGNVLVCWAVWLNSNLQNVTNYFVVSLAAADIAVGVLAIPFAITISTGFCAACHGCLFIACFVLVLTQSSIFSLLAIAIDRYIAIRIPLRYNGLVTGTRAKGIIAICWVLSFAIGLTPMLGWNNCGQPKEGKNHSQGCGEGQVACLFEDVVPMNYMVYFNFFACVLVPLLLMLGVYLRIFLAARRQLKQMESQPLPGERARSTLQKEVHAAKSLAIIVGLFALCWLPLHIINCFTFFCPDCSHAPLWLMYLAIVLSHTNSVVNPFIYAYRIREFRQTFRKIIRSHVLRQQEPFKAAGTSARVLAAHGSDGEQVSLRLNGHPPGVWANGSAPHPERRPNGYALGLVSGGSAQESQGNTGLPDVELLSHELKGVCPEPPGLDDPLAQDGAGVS
Experimental: (§16) In the cAMP assay, CHO-K1/ADORA2A/Gα15 cells expressing human A2A AR and CHO-K1/ADORA2b/Gα15 cells expressing human A2B AR were activated by 5′-(N-ethylcarboxamido)adenosine (NECA) and triggered the accumulation of intracellular cAMP concentration.
(§17) CHO-K1/ADORA2A/Gα15 cells expressing human A2A AR and CHO-K1/ADORA2b/Gα15 cells expressing human A2B AR were both constructed by Genscript Biotech Corporation. […] The test stock solutions were diluted with different gradients for use. The procedure was exemplified by the cAMP functional assay on the A2A receptor: 10,000 cells/well of CHO-K1/ADORA2A/Gα15 were seeded in a 384-well plate in 20 μl of assay buffer. […] Then, 10 μl of detection reagent (cAMP-d2 and anti-cAMP-Eu3+) was added into each well of the plate and incubated at room temperature for 1 h.

human A2B AR = biological target: T1, human A2B AR (Homo sapiens, UniProt P29275); assay: cAMP functional assay in CHO-K1/ADORA2b/Gα15 cells (NECA-stimulated, HTRF); format: cell-based; details: mean ± SEM; for inhibition at 0.1 µM: CHO-K1, read-out: hA2B AR (%) inhibition of cAMP, 100 nM
T1 sequence (P29275 1-332): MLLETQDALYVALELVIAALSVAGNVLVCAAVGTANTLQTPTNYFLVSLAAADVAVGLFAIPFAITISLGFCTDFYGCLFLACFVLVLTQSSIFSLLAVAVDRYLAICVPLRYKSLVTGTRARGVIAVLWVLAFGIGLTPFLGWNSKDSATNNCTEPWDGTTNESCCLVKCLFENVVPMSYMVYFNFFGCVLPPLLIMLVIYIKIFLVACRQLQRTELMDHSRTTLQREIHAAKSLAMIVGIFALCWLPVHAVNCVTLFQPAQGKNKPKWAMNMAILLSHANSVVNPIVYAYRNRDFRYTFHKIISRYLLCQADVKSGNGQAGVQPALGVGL
Experimental: as §16, §17

[1] = Metabolic stability in human liver microsomes; format: in vitro ADME
Experimental: (§1) The metabolic stability is an important focus for further compound optimisation. Compounds 7f, 7i, and AB928 were chosen to evaluate the stability in rat liver microsomes and human liver microsomes. For the microsomal metabolic experiment, 7-ethoxycoumarin (7-EC) was used as a control. As shown in Table 4 (see Supporting information for raw data), the CLint(liver) of 7-EC in rats and humans was 10.0 and 9.0 ml/min/g liver, respectively, indicating the experimental test system was reliable.
(§2) Metabolic stabilities of compounds 7f, 7i, and AB928 in liver microsomes were studied with pooled human (male) liver microsomes solution (20 mg/ml) and male Sprague–Dawley rats pooled liver microsomes solution (20 mg/ml) purchased from Research Institute for Liver Diseases (Shanghai) Co. Ltd. Both liver microsomes solutions (140 μl) were diluted by 3948 μl of water and 280 μl of phosphate buffered saline. The assay procedure: 640 μl of diluted liver microsomes solution was added to a solution of compound working solution (16 μl, 25 μM in DMSO) and the mixed solution was incubated at 37 °C for 5 min. Then 160 μl of NADPH generating system was added and take out 100 μl from the mixed solution was added 200 μl of acetonitrile solution to stop the reaction at the set incubation time (0 min, 10 min, 20 min, 30 min, 40 min, 50 min, and 60 min). All stopped reaction solutions were vortex mixed (3 min) and centrifuged (10,000 rpm, 4 °C for 10 min). Then 50 μl of the supernatant was analysed by UPLC-MS/MS system (details of the analytical method see Supporting information). […]
(§3) 8. Metabolic stability in human and rat liver microsomes
(§4) Metabolic stabilities of compounds 7f, 7i and AB928 in liver microsomes were studied with pooled human (male) liver microsomes solution (20 mg/mL) and male Sprague - Dawley rats pooled liver microsomes solution (20 mg/mL) purchased from Research Institute for Liver Diseases (Shanghai) Co. Ltd. Both liver microsomes solutions (140 μL) were diluted by 3948 μL of water and 280 μL of phosphate buffered saline. The assay procedure: 640 μL of diluted liver microsomes solution was added to a solution of compound working solution (16 μL, 25 μM in DMSO) and the mixed solution was […]
(§5) (1 picture or pasted object on this page, not shown here) […]
(§6) incubated at 37 ℃ for 5 min. Then 160 μL of NADPH generating system was added and take out 100 μL from the mixed solution was added 200 μL of acetonitrile solution to stop the reaction at the set incubation time (0 min, 10 min, 20 min, 30 min, 40 min, 50 min, and 60 min). All stopped reaction solutions were vortex mixed (3 min) and centrifuged (10000 rpm, 4 ℃ for 10 min). Then 50 μL of the supernatant was analyzed […]
(§7) 8.2 Chromatography and mass spectrometry conditions
(§8) UPLC was performed using an […] UPLC system (Waters, Milford, MA, […]
(§9) USA). Separation was achieved on a Waters BEH C18 column(100 mm × 2.1 mm， 1.7 μm) at 40 ℃. The injection volume of the sample solution was 5 μL. The mobile phase consisted of water (0.1% formic acid and ammonium acetate) and acetonitrile solution (20:80, v/v) at a flow rate of 0.4 mL/min within a running time of 6 min. Mass spectrometric analysis was performed on a Waters Xevo TQ-S triple quadrupole instrument using electrospray ionization in positive mode. Quantification was performed using multiple reaction monitoring (MRM) mode to monitor precursor-product ion transitions (Table S1).
(§10) Table S1. Conditions of MRM Detection. […]
(§11) Table S2. Raw data of metabolic stability in human and rat liver microsomes. […]
(§12) (min) Hum Rat Hum Rat Hum Rat Hum Rat
(§13) 9. Analytical method of pharmacokinetics assay
(§14) Animal experiments were performed according to the institutional ethical guidelines on animal care and approved by the Institute Animal Care and Use Committee at Binzhou […]
(§15) Female Bal b/c mice (sourced from Jinan Pengyue Experimental Animal Breeding […]

[2] = Metabolic stability in rat liver microsomes; format: in vitro ADME, Sprague–Dawley rats
Experimental: as §1, §2, §3, §4, §5, §6, §7, §8, §9, §10, §11, §12, §13, §14, §15

[3] = compound at 10 nM, relative to ZM241385 at 1 μM, mean ± SEM
[4] = compound at 100 nM, relative to ZM241385 at 1 μM, mean ± SEM
[5] = compound at 1000 nM, relative to ZM241385 at 1 μM, mean ± SEM
[6] = compound at 100 nM, relative to ZM241385 at 1 μM

Molecule	inhibition at 0.01 µM (human A2A AR; [3]) [%]	inhibition at 0.1 µM (human A2A AR; [4]) [%]	inhibition at 1 µM (human A2A AR; [5]) [%]	inhibition at 0.1 µM (human A2B AR; [6]) [%]	melting point [°C]	other results
Cc1c(C#N)cccc1-c1cc(-c2cn(Cc3ccc4ccccc4n3)nn2)nc(N)n1 [Compound 7a, 3-(2-Amino-6–(1-(quinolin-2-ylmethyl)-1H-1,2,3-triazol-4-yl)pyrimidin-4-yl)-2-methylbenzonitrile]	28.2 ± 8.79	16.5 ± 1.9	43.5 ± 0.77	3.51 ± 3.19	203 to 204	–
Cc1c(C#N)cccc1-c1cc(-c2cn(Cc3cccc(C(=O)N4CC(O)C4)n3)nn2)nc(N)n1 [Compound 7k, 3-(2-Amino-6-(1-((6–(3-hydroxyazetidine-1-carbonyl)pyridin-2-yl)methyl)-1H-1,2,3-triazol-4-yl)pyrimidin-4-yl)-2-methylbenzonitrile]	21.7 ± 5.43	70.5 ± 6.37	94.9 ± 2.05	78.3 ± 2.66	–	–
Cc1c(C#N)cccc1-c1cc(-c2cn(Cc3cccc(-c4ncc[nH]4)n3)nn2)nc(N)n1 [Compound 7g, 3-(6-(1-((6-(1H-imidazol-2-yl)pyridin-2-yl)methyl)-1H-1,2,3-triazol-4-yl)-2-aminopyrimidin-4-yl)-2-methylbenzonitrile]	19.6 ± 2.13	56 ± 2.03	107.3 ± 0.89	52.9 ± 3.96	139 to 140	–
Cc1c(C#N)cccc1-c1cc(-c2cn(Cc3ccc4cccc(N)c4n3)nn2)nc(N)n1 [Compound 7c, 3-(2-amino-6-(1-((8-aminoquinolin-2-yl)methyl)-1H-1,2,3-triazol-4-yl)pyrimidin-4-yl)-2-methylbenzonitrile]	35.9 ± 5.39	38.2 ± 10.8	48.5 ± 1.45	85.43 ± 0.04	268 to 269	–
COc1ccc(Cn2cc(-c3cc(-c4cccc(C#N)c4C)nc(N)n3)nn2)cc1 [Compound 7n, 3-(2-Amino-6-(1-(4-methoxybenzyl)-1H-1,2,3-triazol-4-yl)pyrimidin-4-yl)-2-methylbenzonitrile]	18.8 ± 3.88	29.8 ± 0.38	54.8 ± 2.41	63.5 ± 4.93	149 to 150	–
3-(2-Amino-6-(1-((6–(2-(hydroxymethyl)pyrrolidine-1-carbonyl)pyridin-2-yl)methyl)-1H-1,2,3-triazol-4-yl)pyrimidin-4-yl)-2-methylbenzonitrile [Compound 7l]	–	–	–	–	–	hA2A AR (%) inhibition of cAMP, 10 nM (human A2A AR; [3]): 13.46 ± 3.71%; hA2A AR (%) inhibition of cAMP, 100 nM (human A2A AR; [4]): 52.3 ± 8.46%; hA2A AR (%) inhibition of cAMP, 1000 nM (human A2A AR; [5]): 89.66 ± 1.31%; hA2B AR (%) inhibition of cAMP, 100 nM (human A2B AR; [6]): 84.34 ± 4.72%
Cc1c(C#N)cccc1-c1cc(-c2cn(Cc3cccc(C(=O)OC(C)C)n3)nn2)nc(N)n1 [Compound 7e, Isopropyl 6-((4-(2-amino-6-(3-cyano-2-methylphenyl)pyrimidin-4-yl)-1H-1,2,3-triazol-1-yl)methyl)picolinate]	45 ± 1.25	50.7 ± 5.51	67.8 ± 4.91	82.5 ± 7.81	128 to 129	–
COc1cccc(Cn2cc(-c3cc(-c4cccc(C#N)c4C)nc(N)n3)nn2)c1 [Compound 7m, 3-(2-Amino-6-(1-(3-methoxybenzyl)-1H-1,2,3-triazol-4-yl)pyrimidin-4-yl)-2-methylbenzonitrile]	21.5 ± 4.32	28.6 ± 4.03	69.6 ± 1.01	69.4 ± 4.01	163 to 164	–
CCOc1ccc2ccc(=O)oc2c1 [Compound 7-EC, 7-ethoxycoumarin, reference compound]	–	–	–	–	–	CLint(liver) Hum ([1]; human, microsomes): 9.0 mL/min/g; half-life at 0.49 µM ([1]; male, human, microsomes): 8.12 min; remaining at 20 min, 0.49 µM ([1]; male, human, microsomes): 11.5%; remaining at 0.5 h, 0.49 µM ([1]; male, human, microsomes): 3.54%; remaining at 40 min, 0.49 µM ([1]; male, human, microsomes): 1.6%; remaining at 50 min, 0.49 µM ([1]; male, human, microsomes): 0.97%; remaining at 1 h, 0.49 µM ([1]; male, human, microsomes): 0.72%; remaining at 10 min, 0.49 µM ([1]; male, human liver microsomes, 10 min, read-out: %Remaining Hum, 10 min): 34%; remaining at 10 min, 0.49 µM ([2]; male, Sprague-Dawley, pooled rat liver microsomes, rat liver microsomes, 10 min): 49%; remaining at 20 min, 0.49 µM ([2]; male, Sprague-Dawley, pooled rat liver microsomes, rat liver microsomes, 20 min): 23%; remaining at 0.5 h, 0.49 µM ([2]; male, Sprague-Dawley, pooled rat liver microsomes, rat liver microsomes, 30 min): 10.4%; remaining at 40 min, 0.49 µM ([2]; male, Sprague-Dawley, pooled rat liver microsomes, rat liver microsomes, 40 min): 2.98%; remaining at 50 min, 0.49 µM ([2]; male, Sprague-Dawley, pooled rat liver microsomes, rat liver microsomes, 50 min): 1.02%; remaining at 1 h, 0.49 µM ([2]; male, Sprague-Dawley, pooled rat liver microsomes, rat liver microsomes, 60 min, read-out: Remaining (%, T = 60min) Rat): 0.35%; half-life at 0.49 µM ([2]; male, Sprague-Dawley, rat, pooled rat liver microsomes, read-out: T1/2 Rat): 7.26 min; CLint(liver) Rat ([2]; rat liver microsomes): 10.0 mL/min/g
Cc1ccc(-c2cc(-c3cn(Cc4cccc(C(C)(C)O)n4)nn3)nc(N)n2)o1 [Compound 17, 2-(6-((4-(2-Amino-6-(5-methylfuran-2-yl)pyrimidin-4-yl)-1H-1,2,3-triazol-1-yl)methyl)pyridin-2-yl)propan-2-ol]	17.6 ± 2.78	92.28 ± 0.61	92.7 ± 2.87	64.4 ± 0.89	188 to 189	IC50 (human A2A AR; CHO cells expressing hA2A AR, mean ± SEM, read-out: cAMP IC50 hA2A AR): 321 ± 94 nM; fold less active than compound 7i (cAMP IC50, A2A receptor) (human A2A AR; ratio of cAMP IC50 values vs 7i): 52 fold; IC50 (human A2B AR; CHO cells expressing hA2B AR, read-out: cAMP IC50 hA2B AR): 80 ± 13.4 nM

From article PMC9154793, “Design, synthesis, and biological evaluation of triazole-pyrimidine-methylbenzonitrile derivatives as dual A2A/A2B adenosine receptor antagonists” (Journal of Enzyme Inhibition and Medicinal Chemistry, 2022)
